Data reported in patent publication US10450316B2, “Certain protein kinase inhibitor” (Chongqing Fochon Pharmaceutical Co., Ltd., priority 2015, dated 2019).

System: BE(2)-C cell
Test: Cell proliferation assay (MTS) in BE(2)-C cells
Assay type: cell-based
Details: Homo sapiens, inhibition of BE(2)-C cell proliferation, 48 h
Procedure: MTS testing kit was purchased from Promega. The DMEM, Fetal bovine serum and Penicillin-Streptomycin were purchased from Gibco. Dimethyl sulfoxide (DMSO) was purchased from Sigma.
To investigate whether a compound is able to inhibit the activity of CDK4/6 in cells, mechanism-based assays using BE(2)-C cell (ATCC® number:CRL-2268) were developed. In the assay, inhibition of CDK4/6 was detected by the inhibition of BE(2)-C cell cells proliferation. BE(2)-C cell cells were cultured in culture flasks to 40-80% confluence in DMEM plus 10% fetal bovine serum. Cells were collected and plated onto 96-well plates at cell density of 3000 cells/well. Plates were incubated overnight at 37° C., with 5% CO2 to adhere. Compounds were added to the plates, the final compound concentrations were 10000, 3333, 1111, […], 123.5, 41.2, 13.7, 4.6 and 1.5 nM. Place plates at 37° C., with 5% CO2 for 48 h. After removing the medium, 20 μl MTS/100 μl medium mixture solution were added to each well and incubate the plates for exactly 2 hours. The reaction was terminated by adding 25 μl 10% SDS per well. Measure absorbance at 490 nm and 650 nm (reference wavelength). IC50 was calculated using GraphPad Prism 5.0.
Select compounds prepared as described above were assayed according to the biological procedures described herein. “++++” stands for IC50 value below about 10 nM. “+++” stands for IC50 value between greater than about 10 nM to about 100 nM. “++” stands for IC50 value between greater than about 100 nM to about […]. “+” stands for IC50 value greater than 1 μM.

CCN1CC2(C1)CN(Cc1ccc(Nc3ncc(F)c(-c4cc(F)c5nc6n(c5c4)[C@H](C(F)F)CC6)n3)nc1)C2 [Example 47, (S)-4-(1-(difluoromethyl)-5-fluoro-2,3-dihydro-1H-benzo[d]pyrrolo[1,2-a]imidazol-7-yl)-N-(5-((6-ethyl-2,6-diazaspiro[3.3]heptan-2-yl)methyl)pyridin-2-yl)-5-fluoropyrimidin-2-amine]
IC50: 0.01 to 0.1 µM

Fc1cnc(Nc2ccc(CN3CC4CNCC4C3)cn2)nc1-c1cc(F)c2nc3n(c2c1)[C@H](C(F)F)CC3 (stereo partly drawn) [Example 48, 4-((S)-1-(difluoromethyl)-5-fluoro-2,3-dihydro-1H-benzo[d]pyrrolo[1,2-a]imidazol-7-yl)-5-fluoro-N-(5-((hexahydropyrrolo[3,4-c]pyrrol-2(1H)-yl)methyl)pyridin-2-yl)pyrimidin-2-amine]
IC50: > 0.1 µM

CN1CC2CN(Cc3ccc(Nc4ncc(F)c(-c5cc(F)c6nc7n(c6c5)[C@H](C(F)F)CC7)n4)nc3)CC2C1 (stereo partly drawn) [Example 49, 4-((S)-1-(difluoromethyl)-5-fluoro-2,3-dihydro-1H-benzo[d]pyrrolo[1,2-a]imidazol-7-yl)-5-fluoro-N-(5-((5-methylhexahydropyrrolo[3,4-c]pyrrol-2(1H)-yl)methyl)pyridin-2-yl)pyrimidin-2-amine]
IC50: 0.01 to 0.1 µM

CCN1CC2CN(Cc3ccc(Nc4ncc(F)c(-c5cc(F)c6nc7n(c6c5)[C@H](C(F)F)CC7)n4)nc3)CC2C1 (stereo partly drawn) [Example 50, 4-((S)-1-(difluoromethyl)-5-fluoro-2,3-dihydro-1H-benzo[d]pyrrolo[1,2-a]imidazol-7-yl)-N-(5-((5-ethylhexahydropyrrolo[3,4-c]pyrrol-2(1H)-yl)methyl)pyridin-2-yl)-5-fluoropyrimidin-2-amine]
IC50: 0.01 to 0.1 µM

Fc1cnc(Nc2ccc(CN3CCC4(CCNCC4)CC3)cn2)nc1-c1cc(F)c2nc3n(c2c1)[C@H](C(F)F)CC3 [Example 51, (S)-N-(5-((3,9-diazaspiro[5.5]undecan-3-yl)methyl)pyridin-2-yl)-4-(1-(difluoromethyl)-5-fluoro-2,3-dihydro-1H-benzo[d]pyrrolo[1,2-a]imidazol-7-yl)-5-fluoropyrimidin-2-amine]
IC50: > 0.1 µM

CN1CCC2(CC1)CCN(Cc1ccc(Nc3ncc(F)c(-c4cc(F)c5nc6n(c5c4)[C@H](C(F)F)CC6)n3)nc1)CC2 [Example 52, (S)-4-(1-(difluoromethyl)-5-fluoro-2,3-dihydro-1H-benzo[d]pyrrolo[1,2-a]imidazol-7-yl)-5-fluoro-N-(5-((9-methyl-3,9-diazaspiro[5.5]undecan-3-yl)methyl)pyridin-2-yl)pyrimidin-2-amine]
IC50: > 0.1 µM

CCN1CCC2(CC1)CCN(Cc1ccc(Nc3ncc(F)c(-c4cc(F)c5nc6n(c5c4)[C@H](C(F)F)CC6)n3)nc1)CC2 [Example 53, (S)-4-(1-(difluoromethyl)-5-fluoro-2,3-dihydro-1H-benzo[d]pyrrolo[1,2-a]imidazol-7-yl)-N-(5-((9-ethyl-3,9-diazaspiro[5.5]undecan-3-yl)methyl)pyridin-2-yl)-5-fluoropyrimidin-2-amine]
IC50: > 0.1 µM

Fc1cnc(Nc2ccc(CN3C4CCC3CNC4)cn2)nc1-c1cc(F)c2nc3n(c2c1)[C@H](C(F)F)CC3 [Example 54, N-(5-((3,8-diazabicyclo[3.2.1]octan-8-yl)methyl)pyridin-2-yl)-4-((S)-1-(difluoromethyl)-5-fluoro-2,3-dihydro-1H-benzo[d]pyrrolo[1,2-a]imidazol-7-yl)-5-fluoropyrimidin-2-amine]
IC50: > 0.1 µM

CN1CC2CCC(C1)N2Cc1ccc(Nc2ncc(F)c(-c3cc(F)c4nc5n(c4c3)[C@H](C(F)F)CC5)n2)nc1 [Example 55, 4-((S)-1-(difluoromethyl)-5-fluoro-2,3-dihydro-1H-benzo[d]pyrrolo[1,2-a]imidazol-7-yl)-5-fluoro-N-(5-((3-methyl-3,8-diazabicyclo[3.2.1]octan-8-yl)methyl)pyridin-2-yl)pyrimidin-2-amine]
IC50: 0.01 to 0.1 µM

CCN1CC2CCC(C1)N2Cc1ccc(Nc2ncc(F)c(-c3cc(F)c4nc5n(c4c3)[C@H](C(F)F)CC5)n2)nc1 [Example 56, 4-((S)-1-(difluoromethyl)-5-fluoro-2,3-dihydro-1H-benzo[d]pyrrolo[1,2-a]imidazol-7-yl)-N-(5-((3-ethyl-3,8-diazabicyclo[3.2.1]octan-8-yl)methyl)pyridin-2-yl)-5-fluoropyrimidin-2-amine]
IC50: 0.01 to 0.1 µM

Fc1cnc(Nc2ccc(CN3CC4CCC(C3)N4)cn2)nc1-c1cc(F)c2nc3n(c2c1)[C@H](C(F)F)CC3 [Example 57, N-(5-((3,8-diazabicyclo[3.2.1]octan-3-yl)methyl)pyridin-2-yl)-4-((S)-1-(difluoromethyl)-5-fluoro-2,3-dihydro-1H-benzo[d]pyrrolo[1,2-a]imidazol-7-yl)-5-fluoropyrimidin-2-amine]
IC50: > 0.1 µM

CN1C2CCC1CN(Cc1ccc(Nc3ncc(F)c(-c4cc(F)c5nc6n(c5c4)[C@H](C(F)F)CC6)n3)nc1)C2 [Example 58, 4-((S)-1-(difluoromethyl)-5-fluoro-2,3-dihydro-1H-benzo[d]pyrrolo[1,2-a]imidazol-7-yl)-5-fluoro-N-(5-((8-methyl-3,8-diazabicyclo[3.2.1]octan-3-yl)methyl)pyridin-2-yl)pyrimidin-2-amine]
IC50: 0.01 to 0.1 µM

CCN1C2CCC1CN(Cc1ccc(Nc3ncc(F)c(-c4cc(F)c5nc6n(c5c4)[C@H](C(F)F)CC6)n3)nc1)C2 [Example 59, 4-((S)-1-(difluoromethyl)-5-fluoro-2,3-dihydro-1H-benzo[d]pyrrolo[1,2-a]imidazol-7-yl)-N-(5-((8-ethyl-3,8-diazabicyclo[3.2.1]octan-3-yl)methyl)pyridin-2-yl)-5-fluoropyrimidin-2-amine]
IC50: 0.01 to 0.1 µM

Fc1cnc(Nc2ccc(CN3CCN4CCC[C@@H]4C3)cn2)nc1-c1cc(F)c2nc3n(c2c1)[C@H](C(F)(F)F)CC3 [Example 60, 5-fluoro-4-((S)-5-fluoro-1-(trifluoromethyl)-2,3-dihydro-1H-benzo[d]pyrrolo[1,2-a]imidazol-7-yl)-N-(5-(((R)-hexahydropyrrolo[1,2-a]pyrazin-2(1H)-yl)methyl)pyridin-2-yl)pyrimidin-2-amine]
IC50: 0.01 to 0.1 µM

Fc1cnc(Nc2ccc(CN3CC4(CCNCC4)C3)cn2)nc1-c1cc(F)c2nc3n(c2c1)[C@H](C(F)(F)F)CC3 [Example 61, (S)-N-(5-((2,7-diazaspiro[3.5]nonan-2-yl)methyl)pyridin-2-yl)-5-fluoro-4-(5-fluoro-1-(trifluoro-methyl)-2,3-dihydro-1H-benzo[d]pyrrolo[1,2-a]imidazol-7-yl)pyrimidin-2-amine]
IC50: > 0.1 µM

CN1CCC2(CC1)CN(Cc1ccc(Nc3ncc(F)c(-c4cc(F)c5nc6n(c5c4)[C@H](C(F)(F)F)CC6)n3)nc1)C2 [Example 62, (S)-5-fluoro-4-(5-fluoro-1-(trifluoromethyl)-2,3-dihydro-1H-benzo[d]pyrrolo[1,2-a]imidazol-7-yl)-N-(5-((7-methyl-2,7-diazaspiro[3.5]nonan-2-yl)methyl)pyridin-2-yl)pyrimidin-2-amine]
IC50: 0.01 to 0.1 µM

CCN1CCC2(CC1)CN(Cc1ccc(Nc3ncc(F)c(-c4cc(F)c5nc6n(c5c4)[C@H](C(F)(F)F)CC6)n3)nc1)C2 [Example 63, (S)-N-(5-((7-ethyl-2,7-diazaspiro[3.5]nonan-2-yl)methyl)pyridin-2-yl)-5-fluoro-4-(5-fluoro-1-(trifluoromethyl)-2,3-dihydro-1H-benzo[d]pyrrolo[1,2-a]imidazol-7-yl)pyrimidin-2-amine]
IC50: 0.01 to 0.1 µM

Fc1cnc(Nc2ccc(CN3CCC4(CC3)CNC4)cn2)nc1-c1cc(F)c2nc3n(c2c1)[C@H](C(F)(F)F)CC3 [Example 64, (S)-N-(5-((2,7-diazaspiro[3.5]nonan-7-yl)methyl)pyridin-2-yl)-5-fluoro-4-(5-fluoro-1-(trifluoro-methyl)-2,3-dihydro-1H-benzo[d]pyrrolo[1,2-a]imidazol-7-yl)pyrimidin-2-amine]
IC50: > 0.1 µM

CN1CC2(CCN(Cc3ccc(Nc4ncc(F)c(-c5cc(F)c6nc7n(c6c5)[C@H](C(F)(F)F)CC7)n4)nc3)CC2)C1 [Example 65, (S)-5-fluoro-4-(5-fluoro-1-(trifluoromethyl)-2,3-dihydro-1H-benzo[d]pyrrolo[1,2-a]imidazol-7-yl)-N-(5-((2-methyl-2,7-diazaspiro[3.5]nonan-7-yl)methyl)pyridin-2-yl)pyrimidin-2-amine]
IC50: 0.01 to 0.1 µM

CCN1CC2(CCN(Cc3ccc(Nc4ncc(F)c(-c5cc(F)c6nc7n(c6c5)[C@H](C(F)(F)F)CC7)n4)nc3)CC2)C1 [Example 66]
IC50: 0.01 to 0.1 µM

Fc1cnc(Nc2ccc(CN3CC4(CNC4)C3)cn2)nc1-c1cc(F)c2nc3n(c2c1)[C@H](C(F)(F)F)CC3 [Example 67, (S)-N-(5-((2,6-diazaspiro[3.3]heptan-2-yl)methyl)pyridin-2-yl)-5-fluoro-4-(5-fluoro-1-(trifluoromethyl)-2,3-dihydro-1H-benzo[d]pyrrolo[1,2-a]imidazol-7-yl)pyrimidin-2-amine]
IC50: > 0.1 µM
